# Source: article PMC9418190, “UDP-glucose, cereblon-dependent proinsulin degrader” (Scientific Reports, 2022)
# Target: T1, cereblon (Mus musculus, UniProt Q8C7D2)
# T1 construct: gene Crbn
# T1 sequence (Q8C7D2 1-445): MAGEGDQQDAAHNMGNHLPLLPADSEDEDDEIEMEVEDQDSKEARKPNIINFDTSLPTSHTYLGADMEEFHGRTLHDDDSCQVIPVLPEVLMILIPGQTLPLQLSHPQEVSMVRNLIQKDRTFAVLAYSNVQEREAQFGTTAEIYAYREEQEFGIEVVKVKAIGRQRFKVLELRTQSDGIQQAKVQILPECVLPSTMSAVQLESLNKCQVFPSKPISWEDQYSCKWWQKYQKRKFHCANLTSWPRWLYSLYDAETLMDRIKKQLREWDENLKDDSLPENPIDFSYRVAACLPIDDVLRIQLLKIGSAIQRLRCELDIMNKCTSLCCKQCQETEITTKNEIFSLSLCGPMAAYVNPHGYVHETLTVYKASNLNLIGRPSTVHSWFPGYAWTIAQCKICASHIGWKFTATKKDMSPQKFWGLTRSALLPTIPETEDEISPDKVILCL
# Assay: dose-dependent protection of proinsulin from cereblon-dependent degradation in NIT1 cells
# Format: cell-based
structure (smiles),measurement,value
O=C1CCC(=O)N1 [succinimide],dose-dependent protection of proinsulin from cereblon-dependent degradation in N,"In fact, succinimide binds to cereblon, protects proinsulin degradation from proinsulin degrader X in a dose-dependent manner"
